Reference: US20120196801A1, “Wound-healing, anti-ambustial, regenerating, and anti-viral pharmaceutical formula for local administration” (priority 2011, published 2012)

Test system: endogenous interferon
Design: species or system non-linear white mice
Settings: mouse, in vivo, ip

Poly I:C
Minimum Dose Inducing Interferon: 5 µg/mL | Titer of ME Interferons: 1638 ME
